In ChEMBL document CHEMBL1821633, “Norcantharimide analogues possessing terminal phosphate esters and their anti-cancer activity” (2011):

Assays:
Type in all cases: functional
NCI-H460 = test: Antiproliferative activity against human H460 cells after 72 hrs by MTT assay; settings: NCI-H460, 72 h
A2780 = test: Antiproliferative activity against human A2780 cells after 72 hrs by MTT assay; settings: A2780, 72 h
SW480 = test: Antiproliferative activity against human SW480 cells after 72 hrs by MTT assay; settings: SW480, 72 h
HT-29 = test: Antiproliferative activity against human HT-29 cells after 72 hrs by MTT assay; settings: HT-29, 72 h
MCF7 = test: Antiproliferative activity against human MCF7 cells after 72 hrs by MTT assay; settings: MCF7, 72 h
[1] = Antiproliferative activity against human BE(2)-C cells after 72 hrs by MTT assay
DU-145 = test: Antiproliferative activity against human DU145 cells after 72 hrs by MTT assay; settings: DU-145, 72 h
[2] = Antiproliferative activity against human SJ-G2 cells after 72 hrs by MTT assay; settings: SJ-G2, 72 h
A-431 = test: Antiproliferative activity against human A431 cells after 72 hrs by MTT assay; settings: A-431, 72 h

| SMILES | GI50 (NCI-H460) [µM] | GI50 (A2780) [µM] | GI50 (SW480) [µM] | GI50 (HT-29) [µM] | GI50 (MCF7) [µM] | GI50 [1] [µM] | GI50 (DU-145) [µM] | GI50 [2] [µM] | GI50 (A-431) [µM] |
| --- | --- | --- | --- | --- | --- | --- | --- | --- | --- |
| O=C1[C@@H]2[C@H](C(=O)N1[C@H]1CCCC[C@@H]1OP(=O)(Oc1ccccc1)Oc1ccccc1)[C@H]1CC[C@@H]2O1 | 48 | 24 | 26 | 11 | 14 | 28 | 35 | 31 | 26 |
| CCOP(=O)(OCC)OCCCCCN1C(=O)[C@@H]2[C@H](C1=O)[C@H]1CC[C@@H]2O1 | > 100 | > 100 | > 100 | > 100 | > 100 | > 100 | > 100 | > 100 | > 100 |
| O=C1[C@@H]2[C@H](C(=O)N1CCCCCOP(=O)(OCC(Cl)(Cl)Cl)OCC(Cl)(Cl)Cl)[C@H]1CC[C@@H]2O1 | 29 | 16 | 17 | 15 | 16 | 22 | 26 | 19 | 18 |
| O=C1[C@@H]2[C@H](C(=O)N1CCO)[C@H]1CC[C@@H]2O1 | > 100 | > 100 | > 100 | > 100 | > 100 | > 100 | > 100 | > 100 | > 100 |
| O=C1c2ccccc2C(=O)N1CCCOP(=O)(Oc1ccccc1)Oc1ccccc1 | > 100 | > 100 | > 100 | > 100 | > 100 | > 100 | > 100 | > 100 | > 100 |
| O=C1[C@@H]2[C@H](C(=O)N1[C@H]1CCCC[C@@H]1OP(=O)(OCC(Cl)(Cl)Cl)OCC(Cl)(Cl)Cl)[C@H]1CC[C@@H]2O1 | > 100 | 39 | 69 | 56 | 54 | 51 | 69 | 45 | 48 |
| O=C1OC(=O)C2C3CCC(O3)C12 (stereo not drawn) [DEMETHYL-CANTHARIDIN] | 45 | 38 | 44 | 57 | 68 | 43 | 28 | 23 | 31 |
| CCOP(=O)(OCC)OCCCCN1C(=O)[C@@H]2[C@H](C1=O)[C@H]1CC[C@@H]2O1 | > 100 | > 100 | > 100 | > 100 | > 100 | > 100 | > 100 | > 100 | > 100 |
| O=C1[C@@H]2[C@H](C(=O)N1CCOP(=O)(Oc1ccccc1)Oc1ccccc1)[C@H]1CC[C@@H]2O1 | > 100 | > 100 | > 100 | > 100 | > 100 | > 100 | > 100 | > 100 | > 100 |
| CCOP(=O)(OCC)OCCCCCCN1C(=O)[C@@H]2[C@H](C1=O)[C@H]1CC[C@@H]2O1 | > 100 | > 100 | > 100 | > 100 | > 100 | > 100 | > 100 | > 100 | > 100 |
| O=C1[C@@H]2[C@H](C(=O)N1CCCCOP(=O)(Oc1ccccc1)Oc1ccccc1)[C@H]1CC[C@@H]2O1 | 64 | 17 | 28 | 14 | 19 | 25 | 13 | 17 | 21 |
| O=C1[C@@H]2[C@H](C(=O)N1CCOP(=O)(OCC(Cl)(Cl)Cl)OCC(Cl)(Cl)Cl)[C@H]1CC[C@@H]2O1 | > 100 | > 100 | > 100 | > 100 | > 100 | > 100 | > 100 | > 100 | > 100 |
| O=C1[C@@H]2[C@H](C(=O)N1CCCOP(=O)(Oc1ccccc1)Oc1ccccc1)[C@H]1CC[C@@H]2O1 | > 100 | > 100 | > 100 | > 100 | > 100 | > 100 | > 100 | > 100 | > 100 |
| CCOP(=O)(OCC)OCCN1C(=O)[C@@H]2[C@H](C1=O)[C@H]1CC[C@@H]2O1 | 49 | 15 | 18 | 33 | 28 | – | 21 | 43 | 27 |
| O=C1[C@@H]2[C@H](C(=O)N1CCCCCCOP(=O)(OCC(Cl)(Cl)Cl)OCC(Cl)(Cl)Cl)[C@H]1CC[C@@H]2O1 | 13 | 7.7 | 10 | 11 | 12 | 9.3 | 13 | 14 | 12 |
| O=C1[C@@H]2[C@H](C(=O)N1CCCCCOP(=O)(Oc1ccccc1)Oc1ccccc1)[C@H]1CC[C@@H]2O1 | 63 | 46 | 50 | 42 | 31 | 56 | 52 | 50 | 45 |
| O=C1[C@@H]2[C@H](C(=O)N1CCCCOP(=O)(OCC(Cl)(Cl)Cl)OCC(Cl)(Cl)Cl)[C@H]1CC[C@@H]2O1 | 56 | 26 | 32 | 16 | 28 | 40 | 49 | 48 | 31 |
| O=C1[C@@H]2[C@H](C(=O)N1CCCCCCO)[C@H]1CC[C@@H]2O1 | > 100 | > 100 | > 100 | > 100 | > 100 | > 100 | > 100 | > 100 | > 100 |
| O=C1[C@@H]2[C@H](C(=O)N1CCCOP(=O)(OCC(Cl)(Cl)Cl)OCC(Cl)(Cl)Cl)[C@H]1CC[C@@H]2O1 | 78 | 47 | 72 | 57 | 60 | 50 | > 100 | 58 | 80 |
| O=C1[C@@H]2[C@H](C(=O)N1CCCCCCOP(=O)(Oc1ccccc1)Oc1ccccc1)[C@H]1CC[C@@H]2O1 | 25 | 11 | 14 | 5.4 | 9.1 | 14 | 7 | 14 | 13 |
| CCOP(=O)(OCC)O[C@H]1CCCC[C@@H]1N1C(=O)[C@@H]2[C@H](C1=O)[C@H]1CC[C@@H]2O1 | 89 | 22 | 33 | 57 | 50 | 31 | 36 | 60 | 47 |
